Measured values from ChEMBL document CHEMBL5360618, “PepScaf: Harnessing Machine Learning with In Vitro Selection toward De Novo Macrocyclic Peptides against IL-17C/IL-17RE Interaction” (J Med Chem, 2023).
Positions of bridges follow the written chain, without caps; N, C: chain ends. Residues, ends and D or L forms follow the SMILES beside them.

target: T1, IL17-RE-IL-17C (Homo sapiens, UniProt Q8NFR9+Q9P0M4); assay: Inhibition of IL-17C/IL-17RE interaction (unknown origin) incubated for 1.5 hrs by ELISA method; assay type: protein-complex assay
T1 sequence (Q9P0M4 whole entry): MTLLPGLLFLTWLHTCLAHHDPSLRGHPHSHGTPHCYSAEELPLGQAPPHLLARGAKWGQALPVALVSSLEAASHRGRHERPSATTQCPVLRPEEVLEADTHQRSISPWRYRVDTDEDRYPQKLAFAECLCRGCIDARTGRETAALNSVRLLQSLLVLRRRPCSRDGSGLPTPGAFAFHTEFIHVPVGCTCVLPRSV
T1 sequence (Q8NFR9 whole entry): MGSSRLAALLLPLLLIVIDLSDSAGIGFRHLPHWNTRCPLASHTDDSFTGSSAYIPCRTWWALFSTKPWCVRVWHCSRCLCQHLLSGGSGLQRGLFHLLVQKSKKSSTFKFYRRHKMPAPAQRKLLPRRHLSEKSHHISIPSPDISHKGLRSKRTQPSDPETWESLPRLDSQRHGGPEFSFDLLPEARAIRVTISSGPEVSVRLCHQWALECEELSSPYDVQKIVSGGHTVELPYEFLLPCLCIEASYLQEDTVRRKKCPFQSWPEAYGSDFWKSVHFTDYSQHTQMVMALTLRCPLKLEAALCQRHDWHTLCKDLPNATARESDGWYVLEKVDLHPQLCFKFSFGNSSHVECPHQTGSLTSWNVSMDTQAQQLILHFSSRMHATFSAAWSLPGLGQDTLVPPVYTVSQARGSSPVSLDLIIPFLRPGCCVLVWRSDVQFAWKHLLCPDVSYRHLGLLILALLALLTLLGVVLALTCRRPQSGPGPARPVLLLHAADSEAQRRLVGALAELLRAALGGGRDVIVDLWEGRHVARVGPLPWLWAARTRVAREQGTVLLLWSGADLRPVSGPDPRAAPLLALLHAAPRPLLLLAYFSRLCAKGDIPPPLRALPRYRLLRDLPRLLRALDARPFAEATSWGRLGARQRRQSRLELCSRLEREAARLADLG

Structure (SMILES)	IC50 [µM]
CC[C@H](C)[C@@H]1NC(=O)[C@H](CCCNC(=N)N)NC(=O)[C@H](Cc2ccc(O)cc2)NC(=O)[C@H](Cc2ccccc2)NC(=O)[C@H](Cc2c[nH]cn2)NC(=O)[C@H](Cc2c[nH]cn2)NC(=O)[C@H](Cc2ccc(O)cc2)NC(=O)CSC[C@@H](C(=O)NCC(N)=O)NC(=O)CNC(=O)[C@H](CC(C)C)NC(=O)[C@H](CCC(=O)O)NC(=O)CNC(=O)[C@H](Cc2ccc(O)cc2)NC(=O)[C@H](CC(C)C)NC1=O ({CH2CO}-YHHFYRILYGELGCG-NH2; thioether N-14)	0.171
CC[C@H](C)[C@@H]1NC(=O)[C@H](CCCNC(=N)N)NC(=O)[C@H](Cc2ccc(O)cc2)NC(=O)[C@H](Cc2c[nH]cn2)NC(=O)[C@H](Cc2c[nH]cn2)NC(=O)[C@H](Cc2c[nH]cn2)NC(=O)[C@H](Cc2ccc(O)cc2)NC(=O)CSC[C@@H](C(=O)NCC(N)=O)NC(=O)CNC(=O)[C@H](CC(C)C)NC(=O)[C@H](CCC(=O)O)NC(=O)CNC(=O)[C@H](Cc2ccc(O)cc2)NC(=O)[C@H](CC(C)C)NC1=O ({CH2CO}-YHHHYRILYGELGCG-NH2; thioether N-14)	6.85
CC[C@H](C)[C@@H]1NC(=O)[C@H](CCCNC(=N)N)NC(=O)[C@H](Cc2ccccc2)NC(=O)[C@H](Cc2ccc(O)cc2)NC(=O)[C@H](Cc2c[nH]cn2)NC(=O)[C@H](Cc2c[nH]cn2)NC(=O)[C@H](Cc2ccc(O)cc2)NC(=O)CSC[C@@H](C(=O)NCC(N)=O)NC(=O)CNC(=O)[C@H](CC(C)C)NC(=O)[C@H](CCC(=O)O)NC(=O)CNC(=O)[C@H](Cc2ccc(O)cc2)NC(=O)[C@H](CC(C)C)NC1=O ({CH2CO}-YHHYFRILYGELGCG-NH2; thioether N-14)	3.97
CC[C@H](C)[C@@H]1NC(=O)[C@H](CCCNC(=N)N)NC(=O)[C@H](Cc2c[nH]cn2)NC(=O)[C@H](Cc2ccc(O)cc2)NC(=O)[C@H](Cc2c[nH]cn2)NC(=O)[C@H](Cc2c[nH]cn2)NC(=O)[C@H](Cc2ccc(O)cc2)NC(=O)CSC[C@@H](C(=O)NCC(N)=O)NC(=O)CNC(=O)[C@H](CC(C)C)NC(=O)[C@H](CCC(=O)O)NC(=O)CNC(=O)[C@H](Cc2ccc(O)cc2)NC(=O)[C@H](CC(C)C)NC1=O ({CH2CO}-YHHYHRILYGELGCG-NH2; thioether N-14)	> 30
CC(C)C[C@@H]1NC(=O)[C@H](CCC(=O)O)NC(=O)CNC(=O)[C@H](Cc2ccc(O)cc2)NC(=O)[C@H](CC(C)C)NC(=O)[C@H](Cc2ccccc2)NC(=O)[C@H](CCCNC(=N)N)NC(=O)[C@H](Cc2ccc(O)cc2)NC(=O)[C@H](Cc2ccc(O)cc2)NC(=O)[C@H](Cc2c[nH]cn2)NC(=O)[C@H](Cc2c[nH]cn2)NC(=O)[C@H](Cc2ccc(O)cc2)NC(=O)CSC[C@@H](C(=O)NCC(N)=O)NC(=O)CNC1=O ({CH2CO}-YHHYYRFLYGELGCG-NH2; thioether N-14)	1.67
CC[C@H](C)[C@@H]1NC(=O)[C@H](CCCNC(=N)N)NC(=O)[C@H](Cc2ccc(O)cc2)NC(=O)[C@H](Cc2ccc(O)cc2)NC(=O)[C@H](Cc2c[nH]cn2)NC(=O)[C@H](Cc2c[nH]cn2)NC(=O)[C@H](Cc2ccc(O)cc2)NC(=O)CSC[C@@H](C(=O)NCC(N)=O)NC(=O)CNC(=O)[C@H](CC(C)C)NC(=O)[C@H](CCC(=O)O)NC(=O)CNC(=O)[C@H](C)NC(=O)[C@H](CC(C)C)NC1=O ({CH2CO}-YHHYYRILAGELGCG-NH2; thioether N-14)	> 30
CC[C@H](C)[C@@H]1NC(=O)[C@H](CCCNC(=N)N)NC(=O)[C@H](Cc2ccc(O)cc2)NC(=O)[C@H](Cc2ccc(O)cc2)NC(=O)[C@H](Cc2c[nH]cn2)NC(=O)[C@H](Cc2c[nH]cn2)NC(=O)[C@H](Cc2ccc(O)cc2)NC(=O)CSC[C@@H](C(=O)NCC(N)=O)NC(=O)CNC(=O)[C@H](CC(C)C)NC(=O)[C@H](CCC(=O)O)NC(=O)CNC(=O)[C@H](Cc2ccccc2)NC(=O)[C@H](CC(C)C)NC1=O ({CH2CO}-YHHYYRILFGELGCG-NH2; thioether N-14)	1.23
CC[C@H](C)[C@@H]1NC(=O)[C@H](CCCNC(=N)N)NC(=O)[C@H](Cc2ccc(O)cc2)NC(=O)[C@H](Cc2ccc(O)cc2)NC(=O)[C@H](Cc2c[nH]cn2)NC(=O)[C@H](Cc2c[nH]cn2)NC(=O)[C@H](Cc2ccc(O)cc2)NC(=O)CSC[C@@H](C(=O)NCC(N)=O)NC(=O)CNC(=O)[C@H](CC(C)C)NC(=O)[C@H](CCC(=O)O)NC(=O)CNC(=O)[C@H](Cc2c[nH]cn2)NC(=O)[C@H](CC(C)C)NC1=O ({CH2CO}-YHHYYRILHGELGCG-NH2; thioether N-14)	> 30

Further lines, results first:

IC50 [µM]	Structure (SMILES)
> 30	CC[C@H](C)[C@@H]1NC(=O)[C@H](CCCNC(=N)N)NC(=O)[C@H](Cc2ccc(O)cc2)NC(=O)[C@H](C)NC(=O)[C@H](Cc2c[nH]cn2)NC(=O)[C@H](Cc2c[nH]cn2)NC(=O)[C@H](Cc2ccc(O)cc2)NC(=O)CSC[C@@H](C(=O)NCC(N)=O)NC(=O)CNC(=O)[C@H](CC(C)C)NC(=O)[C@H](CCC(=O)O)NC(=O)CNC(=O)[C@H](Cc2ccc(O)cc2)NC(=O)[C@H](CC(C)C)NC1=O ({CH2CO}-YHHAYRILYGELGCG-NH2; thioether N-14)
> 30	CC[C@H](C)[C@@H]1NC(=O)[C@H](CCCNC(=N)N)NC(=O)[C@H](C)NC(=O)[C@H](Cc2ccc(O)cc2)NC(=O)[C@H](Cc2c[nH]cn2)NC(=O)[C@H](Cc2c[nH]cn2)NC(=O)[C@H](Cc2ccc(O)cc2)NC(=O)CSC[C@@H](C(=O)NCC(N)=O)NC(=O)CNC(=O)[C@H](CC(C)C)NC(=O)[C@H](CCC(=O)O)NC(=O)CNC(=O)[C@H](Cc2ccc(O)cc2)NC(=O)[C@H](CC(C)C)NC1=O ({CH2CO}-YHHYARILYGELGCG-NH2; thioether N-14)
0.4	CC[C@H](C)[C@@H]1NC(=O)[C@H](C)NC(=O)[C@H](Cc2ccc(O)cc2)NC(=O)[C@H](Cc2ccc(O)cc2)NC(=O)[C@H](Cc2c[nH]cn2)NC(=O)[C@H](Cc2c[nH]cn2)NC(=O)[C@H](Cc2ccc(O)cc2)NC(=O)CSC[C@@H](C(=O)NCC(N)=O)NC(=O)CNC(=O)[C@H](CC(C)C)NC(=O)[C@H](CCC(=O)O)NC(=O)CNC(=O)[C@H](Cc2ccc(O)cc2)NC(=O)[C@H](CC(C)C)NC1=O ({CH2CO}-YHHYYAILYGELGCG-NH2; thioether N-14)
> 30	CC[C@H](C)[C@@H]1NC(=O)CNC(=O)[C@H](Cc2ccc(O)cc2)NC(=O)[C@H](Cc2ccc(O)cc2)NC(=O)[C@H](Cc2c[nH]cn2)NC(=O)[C@H](Cc2c[nH]cn2)NC(=O)[C@H](Cc2ccc(O)cc2)NC(=O)CSC[C@@H](C(=O)NCC(N)=O)NC(=O)CNC(=O)[C@H](CC(C)C)NC(=O)[C@H](CCC(=O)O)NC(=O)CNC(=O)[C@H](Cc2ccc(O)cc2)NC(=O)[C@H](CC(C)C)NC1=O ({CH2CO}-YHHYYGILYGELGCG-NH2; thioether N-14)
> 30	CC[C@H](C)[C@@H]1NC(=O)[C@H](CCCNC(=N)N)NC(=O)[C@H](Cc2ccc(O)cc2)NC(=O)[C@H](Cc2ccc(O)cc2)NC(=O)[C@H](Cc2c[nH]cn2)NC(=O)[C@H](Cc2c[nH]cn2)NC(=O)[C@H](Cc2ccc(O)cc2)NC(=O)CSC[C@@H](C(=O)NCC(N)=O)NC(=O)CNC(=O)[C@H](CC(C)C)NC(=O)[C@H](CCC(=O)O)NC(=O)CNC(=O)[C@H](Cc2ccc(O)cc2)NC(=O)[C@H](C)NC1=O ({CH2CO}-YHHYYRIAYGELGCG-NH2; thioether N-14)
1.36	CC[C@H](C)[C@@H]1NC(=O)[C@H](CCCNC(=N)N)NC(=O)[C@H](Cc2ccc(O)cc2)NC(=O)[C@H](Cc2ccc(O)cc2)NC(=O)[C@H](Cc2c[nH]cn2)NC(=O)[C@H](Cc2c[nH]cn2)NC(=O)[C@H](Cc2ccc(O)cc2)NC(=O)CSC[C@@H](C(=O)NCC(N)=O)NC(=O)CNC(=O)[C@H](CC(C)C)NC(=O)[C@H](CCC(=O)O)NC(=O)[C@H](C)NC(=O)[C@H](Cc2ccc(O)cc2)NC(=O)[C@H](CC(C)C)NC1=O ({CH2CO}-YHHYYRILYAELGCG-NH2; thioether N-14)
